Laboratory results taken from patent US12364721B2, “Compositions and methods for treatment of inflammatory and immune diseases” (Prolacta Bioscience, Inc., priority 2019, dated 2025).

Columns and labels:
[1] = test system: B. longum subsp. infantis; assay: Viability of B. longum subsp. infantis after exposure to acid reducing compounds (anaerobic CFU); assay type: cell-based; conditions: 1 μg/ml and 0.5 μg/ml in citrate buffer (pH 5), 3 hours at 37° C.; with respect to buffer only controls
Method: Viability of B. longum subsp. infantis following exposure to various acid reducing compounds was examined. The benzimidazole derivative compounds omeprazole, esomeprazole, lansoprazole, pantoprazole, and rabeprazole and the H2 receptor antagonist famotidine were suspended in citrate buffer (pH 5) to concentrations of 1 μg/ml and 0.5 μg/ml. An amount of 2.4×10^8 colony forming units (CFU) B. longum subsp. infantis was pelleted and resuspended in each of the citrate buffer and drug solutions. Controls included 2.4×10^8 CFU B. longum subsp. infantis added to citrate buffer alone. Cells were incubated for 3 hours at 37° C. and then plated under anaerobic conditions. Anaerobic CFU were quantified to assess viability.

[2] = test system: B. longum subsp. infantis; assay: Growth of B. longum subsp. infantis in the presence of acid-reducing compounds (OD600); assay type: cell-based; conditions: 24 hours; 125 μg/mL; versus vehicle controls
Method: Growth of B. longum subsp. infantis was assessed in the presence of various acid-reducing compounds, including proton pump inhibitor (PPI) compounds and an H2 receptor antagonist. Stock solutions were prepared by adding 10 mg/mL omeprazole, esomeprazole, lansoprazole, pantoprazole, rabeprazole, and famotidine to DMSO. The stock solutions were diluted 1:4 in PBS and then added in 2-fold serial dilutions to Reinforced Clostridial Media (RCM). The media was then inoculated with 5×10^5 colony forming units (CFU) of B. longum subsp. infantis and incubated under anaerobic conditions at 37° C. Vehicle only control groups consisted of 5×10^5 CFU B. longum subsp. infantis incubated in RCM with the same amounts of PBS and DMSO as the PPI conditions for each dose.

Q: How did the “anaerobic CFU counts” value [1] turn out when `Cc1c(OCC(F)(F)F)ccnc1C[S+]([O-])c1nc2ccccc2[nH]1` (centres unmarked) [lansoprazole] was run?
A: Its value is “generally higher”.

Q: What about the OD600 values [2] of the same molecule?
A: Its OD600 values is “reduced OD600 values with respect to vehicle controls”.
